Source: PubChem BioAssay AID1963436 (Molecular Pharmacology Branch, DTP, NCI, 2024)

Test system: OVCAR-5 complex spheroid (HUVEC/MSC), viability % T/C
Assay: Anticancer human tumor OVCAR-5 cell line growth inhibition [Asc];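 also: spheroids exposed to agents for 7 days before readout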;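 as to viability, T/C: 100% = DMSO vehicle-treated wells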
Conditions: for IC50: curve of first compound; for viability, T/C: stronger effect = lower value
Procedure, shortened: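 Spheroid model: tumor line + HUVEC + hMSC. Single agents and combinations; top conc. at/near clinical Cmax (10 microM if undetermined), half-log dilutions. DMSO stocks at 800-fold test concentration.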

[1] = second compound 0.1 µM, first compound 0.0316 µM
[2] = second compound 0.1 µM, first compound 0.1 µM
[3] = second compound 0.1 µM, first compound 0.316 µM
[4] = second compound 0.1 µM, first compound 1 µM
[5] = second compound 0.1 µM, first compound 3.16 µM
[6] = second compound 0.1 µM, first compound 10 µM
[7] = second compound 0.316 µM, first compound 0.0316 µM
[8] = second compound 0.316 µM, first compound 0.1 µM
[9] = second compound 0.316 µM, first compound 0.316 µM
[10] = second compound 0.316 µM, first compound 1 µM
[11] = second compound 0.316 µM, first compound 3.16 µM
[12] = second compound 0.316 µM, first compound 10 µM
[13] = second compound 1 µM, first compound 0.0316 µM
[14] = second compound 1 µM, first compound 0.1 µM
[15] = second compound 1 µM, first compound 0.316 µM
[16] = second compound 1 µM, first compound 1 µM
[17] = second compound 1 µM, first compound 3.16 µM
[18] = second compound 1 µM, first compound 10 µM
[19] = second compound 3.16 µM, first compound 0.0316 µM
[20] = second compound 3.16 µM, first compound 0.1 µM
[21] = second compound 10 µM, first compound 0.0316 µM
[22] = second compound 10 µM, first compound 0.1 µM

C=CC(=O)N1CCN(c2nc(=O)n(-c3c(C)ccnc3C(C)C)c3nc(-c4c(O)cccc4F)c(F)cc23)C(C)C1 (stereo not given) + CNC(C)C(=O)NC1CN(S(=O)(=O)c2cccc(S(=O)(=O)N3CCC4CCC(C(=O)NC(c5ccccc5)c5ccccc5)N4C(=O)C(NC(=O)C(C)NC)C3)c2)CCC2CCC(C(=O)NC(c3ccccc3)c3ccccc3)N2C1=O
IC50 (second compound 0.01 µM): > 10 µM | IC50 (second compound 0.0316 µM): > 10 µM | IC50 (second compound 0.1 µM): > 10 µM | IC50 (second compound 0.316 µM): > 10 µM | IC50 (second compound 1 µM): > 10 µM | viability, T/C (second compound 0.01 µM, first compound 0.0316 µM): 88.4% | viability, T/C (second compound 0.01 µM, first compound 0.1 µM): 89.9% | viability, T/C (second compound 0.01 µM, first compound 0.316 µM): 85.9% | viability, T/C (second compound 0.01 µM, first compound 1 µM): 100% | viability, T/C (second compound 0.01 µM, first compound 3.16 µM): 115% | viability, T/C (second compound 0.01 µM, first compound 10 µM): 105% | viability, T/C (second compound 0.0316 µM, first compound 0.0316 µM): 74.4% | viability, T/C (second compound 0.0316 µM, first compound 0.1 µM): 84.4% | viability, T/C (second compound 0.0316 µM, first compound 0.316 µM): 83.3% | viability, T/C (second compound 0.0316 µM, first compound 1 µM): 91.2% | viability, T/C (second compound 0.0316 µM, first compound 3.16 µM): 106% | viability, T/C (second compound 0.0316 µM, first compound 10 µM): 104% | viability, T/C [1]: 76.3% | viability, T/C [2]: 87% | viability, T/C [3]: 90.6% | viability, T/C [4]: 88.2% | viability, T/C [5]: 109% | viability, T/C [6]: 103% | viability, T/C [7]: 76.4% | viability, T/C [8]: 83.5% | viability, T/C [9]: 84.9% | viability, T/C [10]: 90.4% | viability, T/C [11]: 104% | viability, T/C [12]: 109% | viability, T/C [13]: 92.9% | viability, T/C [14]: 100% | viability, T/C [15]: 90.4% | viability, T/C [16]: 96.7% | viability, T/C [17]: 103% | viability, T/C [18]: 102%

O=C(c1cc(Cc2n[nH]c(=O)c3ccccc23)ccc1F)N1CCN(C(=O)C2CC2)CC1 + Cc1c(S(C)(=O)=O)c(-c2cc(F)cc(N3CCN(c4ccc(NS(=O)(=O)c5ccc(NC(CCN6CCC(C(=O)OCCCP(=O)(O)O)CC6)CSc6ccccc6)c(S(=O)(=O)C(F)(F)F)c5)cc4)CC3)c2)c(-c2ccc(Cl)cc2)n1C(C)C
IC50 (second compound 0.1 µM): > 10 µM | IC50 (second compound 0.316 µM): > 10 µM | IC50 (second compound 1 µM): > 10 µM | IC50 (second compound 3.16 µM): > 10 µM | IC50 (second compound 10 µM): > 10 µM | viability, T/C [1]: 103% | viability, T/C [2]: 101% | viability, T/C [3]: 90.8% | viability, T/C [4]: 82.6% | viability, T/C [5]: 91.5% | viability, T/C [6]: 76.1% | viability, T/C [7]: 95.8% | viability, T/C [8]: 95.6% | viability, T/C [9]: 84.8% | viability, T/C [10]: 79.6% | viability, T/C [11]: 83.6% | viability, T/C [12]: 78.5% | viability, T/C [13]: 92.2% | viability, T/C [14]: 89.8% | viability, T/C [15]: 88% | viability, T/C [16]: 81.4% | viability, T/C [17]: 78.4% | viability, T/C [18]: 62.6% | viability, T/C [19]: 86.2% | viability, T/C [20]: 94.1% | viability, T/C (second compound 3.16 µM, first compound 0.316 µM): 82.3% | viability, T/C (second compound 3.16 µM, first compound 1 µM): 75.4% | viability, T/C (second compound 3.16 µM, first compound 3.16 µM): 73.4% | viability, T/C (second compound 3.16 µM, first compound 10 µM): 64.7% | viability, T/C [21]: 130% | viability, T/C [22]: 128% | viability, T/C (second compound 10 µM, first compound 0.316 µM): 114% | viability, T/C (second compound 10 µM, first compound 1 µM): 95.5% | viability, T/C (second compound 10 µM, first compound 3.16 µM): 94.1% | viability, T/C (second compound 10 µM, first compound 10 µM): 73.6%

Cn1ncnc1[C@H]1c2n[nH]c(=O)c3cc(F)cc(c23)N[C@@H]1c1ccc(F)cc1 + Cc1c(S(C)(=O)=O)c(-c2cc(F)cc(N3CCN(c4ccc(NS(=O)(=O)c5ccc(NC(CCN6CCC(C(=O)OCCCP(=O)(O)O)CC6)CSc6ccccc6)c(S(=O)(=O)C(F)(F)F)c5)cc4)CC3)c2)c(-c2ccc(Cl)cc2)n1C(C)C
IC50 (second compound 0.1 µM): > 0.1 µM | IC50 (second compound 0.316 µM): > 0.1 µM | IC50 (second compound 1 µM): > 0.1 µM | IC50 (second compound 3.16 µM): > 0.1 µM | IC50 (second compound 10 µM): > 0.1 µM | viability, T/C (second compound 0.1 µM, first compound 0.000316 µM): 99% | viability, T/C (second compound 0.1 µM, first compound 0.001 µM): 101% | viability, T/C (second compound 0.1 µM, first compound 0.00316 µM): 100% | viability, T/C (second compound 0.1 µM, first compound 0.01 µM): 82.9% | viability, T/C [1]: 86% | viability, T/C [2]: 91.1% | viability, T/C (second compound 0.316 µM, first compound 0.000316 µM): 96.3% | viability, T/C (second compound 0.316 µM, first compound 0.001 µM): 95% | viability, T/C (second compound 0.316 µM, first compound 0.00316 µM): 97% | viability, T/C (second compound 0.316 µM, first compound 0.01 µM): 89.7% | viability, T/C [7]: 89.1% | viability, T/C [8]: 74.2% | viability, T/C (second compound 1 µM, first compound 0.000316 µM): 96.7% | viability, T/C (second compound 1 µM, first compound 0.001 µM): 110% | viability, T/C (second compound 1 µM, first compound 0.00316 µM): 100% | viability, T/C (second compound 1 µM, first compound 0.01 µM): 91.7% | viability, T/C [13]: 76.5% | viability, T/C [14]: 89.2% | viability, T/C (second compound 3.16 µM, first compound 0.000316 µM): 88.1% | viability, T/C (second compound 3.16 µM, first compound 0.001 µM): 90.9% | viability, T/C (second compound 3.16 µM, first compound 0.00316 µM): 91.2% | viability, T/C (second compound 3.16 µM, first compound 0.01 µM): 70.1% | viability, T/C [19]: 87.9% | viability, T/C [20]: 76.9% | viability, T/C (second compound 10 µM, first compound 0.000316 µM): 117% | viability, T/C (second compound 10 µM, first compound 0.001 µM): 138% | viability, T/C (second compound 10 µM, first compound 0.00316 µM): 133% | viability, T/C (second compound 10 µM, first compound 0.01 µM): 110% | viability, T/C [21]: 97.9% | viability, T/C [22]: 102%

CCN1C(C(=O)NC23CCC(C(=O)O)(CC2)CC3)C(c2cccc(Cl)c2F)C2(C(=O)Nc3cc(Cl)ccc32)C12CCCCC2 (stereo not given) + Cc1c(S(C)(=O)=O)c(-c2cc(F)cc(N3CCN(c4ccc(NS(=O)(=O)c5ccc(NC(CCN6CCC(C(=O)OCCCP(=O)(O)O)CC6)CSc6ccccc6)c(S(=O)(=O)C(F)(F)F)c5)cc4)CC3)c2)c(-c2ccc(Cl)cc2)n1C(C)C
IC50 (second compound 0.1 µM): > 3 µM | IC50 (second compound 0.316 µM): > 3 µM | IC50 (second compound 1 µM): > 3 µM | IC50 (second compound 3.16 µM): > 3 µM | IC50 (second compound 10 µM): > 3 µM | viability, T/C (second compound 0.1 µM, first compound 0.00949 µM): 102% | viability, T/C (second compound 0.1 µM, first compound 0.03 µM): 93.8% | viability, T/C (second compound 0.1 µM, first compound 0.0949 µM): 93.1% | viability, T/C (second compound 0.1 µM, first compound 0.3 µM): 86.9% | viability, T/C (second compound 0.1 µM, first compound 0.949 µM): 97.3% | viability, T/C (second compound 0.1 µM, first compound 3 µM): 92.5% | viability, T/C (second compound 0.316 µM, first compound 0.00949 µM): 86.3% | viability, T/C (second compound 0.316 µM, first compound 0.03 µM): 101% | viability, T/C (second compound 0.316 µM, first compound 0.0949 µM): 90.2% | viability, T/C (second compound 0.316 µM, first compound 0.3 µM): 82.8% | viability, T/C (second compound 0.316 µM, first compound 0.949 µM): 91.3% | viability, T/C (second compound 0.316 µM, first compound 3 µM): 83.3% | viability, T/C (second compound 1 µM, first compound 0.00949 µM): 88% | viability, T/C (second compound 1 µM, first compound 0.03 µM): 85.5% | viability, T/C (second compound 1 µM, first compound 0.0949 µM): 88.5% | viability, T/C (second compound 1 µM, first compound 0.3 µM): 86.9% | viability, T/C (second compound 1 µM, first compound 0.949 µM): 75.4% | viability, T/C (second compound 1 µM, first compound 3 µM): 83% | viability, T/C (second compound 3.16 µM, first compound 0.00949 µM): 84.7% | viability, T/C (second compound 3.16 µM, first compound 0.03 µM): 92.4% | viability, T/C (second compound 3.16 µM, first compound 0.0949 µM): 97.4% | viability, T/C (second compound 3.16 µM, first compound 0.3 µM): 78.7% | viability, T/C (second compound 3.16 µM, first compound 0.949 µM): 74.1% | viability, T/C (second compound 3.16 µM, first compound 3 µM): 69.3% | viability, T/C (second compound 10 µM, first compound 0.00949 µM): 114% | viability, T/C (second compound 10 µM, first compound 0.03 µM): 122% | viability, T/C (second compound 10 µM, first compound 0.0949 µM): 126% | viability, T/C (second compound 10 µM, first compound 0.3 µM): 111% | viability, T/C (second compound 10 µM, first compound 0.949 µM): 102% | viability, T/C (second compound 10 µM, first compound 3 µM): 89.8%
